A word on the IC50: it is the concentration needed to halve the response being measured. Read a low IC50 as greater potency in that assay. A word on the EC50: it is the concentration at which the effect is half-maximal. For orientation: Kd means a measure of binding affinity in units of concentration. High values mean a looser complex, low ones a tighter complex.

The target of assay [1] is T1, human α1B‐adrenoceptor (Homo sapiens, UniProt P35368).
T1 construct: expressed in transfected cells; host or cells: CHO-K1
T1 sequence (P35368 1-520): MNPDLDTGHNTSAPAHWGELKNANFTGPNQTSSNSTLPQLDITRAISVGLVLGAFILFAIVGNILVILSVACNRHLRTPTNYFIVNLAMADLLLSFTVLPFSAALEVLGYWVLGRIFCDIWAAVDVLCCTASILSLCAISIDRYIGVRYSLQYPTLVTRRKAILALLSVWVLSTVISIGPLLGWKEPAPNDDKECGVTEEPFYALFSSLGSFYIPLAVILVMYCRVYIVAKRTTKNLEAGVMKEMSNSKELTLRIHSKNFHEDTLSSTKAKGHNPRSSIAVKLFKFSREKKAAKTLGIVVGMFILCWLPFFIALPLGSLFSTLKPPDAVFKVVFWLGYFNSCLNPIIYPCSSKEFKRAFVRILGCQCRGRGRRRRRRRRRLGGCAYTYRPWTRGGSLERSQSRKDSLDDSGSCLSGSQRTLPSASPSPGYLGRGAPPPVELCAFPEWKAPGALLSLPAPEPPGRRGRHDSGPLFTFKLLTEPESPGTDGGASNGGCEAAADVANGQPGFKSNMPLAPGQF
Briefly: ^3H‐prazosin whole‐cell radioligand binding, CHO‐α1B cells. The settings on record: CHO‐α1B cells.

The target of assay [2] is T2, human α1D‐adrenoceptor (full length) (Homo sapiens, UniProt P25100).
T2 construct: human α1D‐adrenoceptor (full length) were used; expressed in transfected cells; host or cells: CHO-K1
T2 sequence (P25100 1-572): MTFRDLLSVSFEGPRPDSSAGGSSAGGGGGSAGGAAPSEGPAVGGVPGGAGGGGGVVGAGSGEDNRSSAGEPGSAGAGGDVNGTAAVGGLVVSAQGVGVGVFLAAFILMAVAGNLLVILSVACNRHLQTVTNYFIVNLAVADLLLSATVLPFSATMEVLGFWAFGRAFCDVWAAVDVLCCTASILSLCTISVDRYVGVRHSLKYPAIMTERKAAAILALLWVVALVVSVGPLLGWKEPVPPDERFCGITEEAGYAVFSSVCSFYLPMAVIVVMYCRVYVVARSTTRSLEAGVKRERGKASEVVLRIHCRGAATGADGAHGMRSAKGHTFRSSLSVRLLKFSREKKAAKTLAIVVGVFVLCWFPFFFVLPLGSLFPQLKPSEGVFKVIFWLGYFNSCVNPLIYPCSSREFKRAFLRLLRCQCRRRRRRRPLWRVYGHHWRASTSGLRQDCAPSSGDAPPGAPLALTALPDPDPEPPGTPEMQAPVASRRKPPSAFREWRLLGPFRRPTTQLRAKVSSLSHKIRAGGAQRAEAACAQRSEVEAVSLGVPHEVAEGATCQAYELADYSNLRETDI
Briefly: Intracellular free calcium mobilization, CHO‐α1D cells. It is filed as cell-based. The settings on record: CHO‐α1D cells; for Intracellular calcium release Log EC50: log values given negative; for Intracellular calcium release % ionomycin: maximal response as % of 10 µM ionomycin. (In general: Calcium assays in cells follow changes in intracellular calcium, usually with a dye or a luminescent sensor.)

For assay [3], the system named is parental CHO cell line without any transfected receptors. Briefly: ERK1/2‐phosphorylation, parent CHO cells without transfected receptors. The settings on record: for Emax at 100 µM: Cricetulus griseus, CHO, read-out: ERK1/2-phosphorylation % PDBu at 100μM; for ERK1/2-phosphorylation % PDBu: maximal response as % of PDBu (10μM) response. The class given is cell-based, Chinese hamster.

The target of assay [4] is T1, human α1B‐adrenoceptor. Briefly: ERK1/2‐phosphorylation (Surefire Alphascreen), CHO‐α1B cells. It is filed as cell-based. Particulars: CHO‐α1B cells; for ERK1/2‐phosphorylation % PDBu at 100 µM: response at 100 µM ligand (no EC50 given).
Assay [5] concerns the target T2, human α1D‐adrenoceptor (full length). Briefly: ERK1/2‐phosphorylation (Surefire Alphascreen), CHO‐α1D cells. It is filed as cell-based. Particulars: CHO‐α1D cells; for ERK1/2‐phosphorylation % PDBu: maximal response as % of PDBu. In general terms: Alpha assays give light when donor and acceptor beads are brought close together.
Assay [6] deals with T3, human α1A‐adrenoceptor (Homo sapiens, UniProt P35348).
T3 construct: expressed in transfected cells; host or cells: CHO-K1
T3 sequence (P35348 1-466): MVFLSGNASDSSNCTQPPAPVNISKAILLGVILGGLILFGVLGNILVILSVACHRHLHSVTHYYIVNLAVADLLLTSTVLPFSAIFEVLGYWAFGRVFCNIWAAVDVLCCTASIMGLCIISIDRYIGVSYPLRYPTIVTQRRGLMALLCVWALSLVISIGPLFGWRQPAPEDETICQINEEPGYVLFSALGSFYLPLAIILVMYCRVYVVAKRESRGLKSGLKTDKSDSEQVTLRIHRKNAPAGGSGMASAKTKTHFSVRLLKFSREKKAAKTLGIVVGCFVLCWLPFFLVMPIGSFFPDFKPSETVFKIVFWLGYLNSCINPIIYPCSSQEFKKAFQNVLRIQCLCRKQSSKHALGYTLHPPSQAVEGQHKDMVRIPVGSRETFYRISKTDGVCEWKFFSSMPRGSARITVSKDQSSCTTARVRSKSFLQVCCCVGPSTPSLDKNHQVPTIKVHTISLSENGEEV
Briefly: ERK1/2‐phosphorylation (Surefire Alphascreen), CHO‐α1A cells. The class given is cell-based. Particulars: CHO‐α1A cells; response at 100 μM ligand, no EC50 obtained.

The target of assay [7] is T1, human α1B‐adrenoceptor. Briefly: Intracellular free calcium mobilization, CHO‐α1B cells. It is filed as cell-based. The settings on record: CHO‐α1B cells; for Intracellular calcium release % ionomycin: maximal response as % of 10 µM ionomycin response.
The target of assay [8] is T2, human α1D‐adrenoceptor (full length). Briefly: ^3H‐prazosin whole‐cell radioligand binding, CHO‐α1D cells. The settings on record: CHO‐α1D cells.
Assay [9] concerns parental CHO cell line without any transfected receptors. Briefly: Forskolin‐stimulated cAMP accumulation, parent CHO cells without transfected receptors. It is filed as cell-based, Chinese hamster. The settings on record: CHO cells without transfected receptors; in presence of forskolin.
In assay [10] the target is T3, human α1A‐adrenoceptor. Briefly: ^3H‐cAMP accumulation, CHO‐α1A cells. It is filed as cell-based. The settings on record: CHO‐α1A cells; % of 10 µM forskolin response.
[11] abbreviates: response at 100 µM ligand (no EC50 given).
Where [12] appears, read: CHO cells without transfected receptors, mean ± s.e.m.

`CC(C)(C)NCC(O)c1ccc(O)c(CO)c1` (stereo not drawn) [Salbutamol]: the 50% inhibitory concentration (IC50) in [1] (printed as IC50> log value) was over 1000 µM. In addition, the “Intracellular calcium release Log EC50” value in [2] is recorded as “No response”. For the same compound, the “Intracellular calcium release % ionomycin” value in assay [2] is “No response”; in assay [7], 58.4 ± 3.0%. The Emax at 100 µM in assay [3] was determined as 3.5 ± 2%. Moreover, the “ERK1/2‐phosphorylation % PDBu at 100 µM” value turned out to be 7.1 ± 3.5% in assay [4], 4.0 ± 2.5% in [5] (setting [11]) and 4.3 ± 1.9% in assay [6]. For the same compound, the EC50 in assay [7] (given as log EC50 (negative numbers), read-out: Intracellular calcium release Log EC50 (converted)) is 7.24 µM. The Kd is 135 µM in assay [8] (3H‐prazosin binding Log KD, whole‐cell binding (from Table 1), log values given negative) and 135 µM in assay [8] (given as log KD (negative), mean ± SEM, 'early plateau' = specific binding not fully inhibited).
Consider `COc1ccc(OC)c(C(O)CNC(=O)CN)c1` (stereo not drawn) [Midodrine], for which the “Log KD, ^3H‐prazosin binding” value in [1] (whole‐cell binding (from Table 1), given as log KD (negative numbers)) is reported as “No binding”. In [1] (given as log KD (negative), mean ± SEM), the “Log KD α1B, ^3H‐prazosin whole cell binding” value is recorded as “No binding”. Further, in assay [2], the “Intracellular calcium release Log EC50” value is recorded as “No response” and the “Intracellular calcium release % ionomycin” value is recorded as “No response”. Also, in [3] (setting [12]), the “ERK1/2-phosphorylation % PDBu” value is “No response” and the “ERK1/2-phosphorylation Log EC50” value is “No response”. Further, the “ERK1/2‐phosphorylation % PDBu at 100 µM” value in assay [4] is listed as 20.4 ± 8.0%. For the same compound, the “ERK1/2‐phosphorylation Log EC50” value in assay [5] (log values given negative) is given as “No response”. Moreover, in assay [5], the “ERK1/2‐phosphorylation % PDBu” value is on record as “No response”. The “ERK1/2‐phosphorylation % PDBu at 100 µM” value in [6] was determined as 87.7 ± 11.0%. Besides, in [7] (response at 100 µM ligand (no EC50 given), % of ionomycin response), the “Intracellular calcium release % Ionomycin at 100 µM” value worked out at 16.9 ± 2.0%. For the same compound, the “3H‐prazosin binding log IC50 (bound, printed in Log KD column)” value in assay [8] (whole‐cell binding, given as IC50 > log value) is “IC50 > −3”. This compound also came in with a 50% inhibitory concentration (IC50) in assay [8] (printed as IC50> log value) of over 1000 µM.
On to `CNC[C@H](O)c1cccc(O)c1` [R-phenylephrine], for which the “ERK1/2-phosphorylation % PDBu” value in assay [3] (setting [12]) is “No response”. For the same compound, in assay [9], the “cAMP accumulation (in presence of forskolin) Log EC50” value is “No response”.
With `CC(C)NCC(O)c1ccc(O)c(O)c1` (stereo not drawn) [Isoprenaline], the “Intracellular calcium release % Ionomycin at 100 µM” value in assay [2] (setting [11]) was 3.6 ± 1.2%. In addition, in assay [3], the Emax at 100 µM is 5.1 ± 4.6%. Besides, the “ERK1/2‐phosphorylation % PDBu” value is 77.8 ± 8.5% in assay [4] (maximal response as % PDBu response, for bi‐phasic responses the initial stimulatory part) and 8.5 ± 1.7% in assay [5]. Also, in assay [10], the “cAMP accumulation % forskolin” value worked out at 16.2 ± 3.0%. The “cAMP accumulation (in presence of forskolin) Log EC50” value in [9] is “No response”. Besides, the “Intracellular calcium release % ionomycin” value in assay [7] stood at 53.9 ± 3.3%.
